Tests used:
[1] = tested on: LPS-Induced TNF-α Production From the Murine Cell Line WEHI-265; assay: In vitro inhibition of LPS-induced TNF-α production from the murine cell line WEHI-265; type: cell-based; conditions: Mus musculus, WEHI-265 cells, LPS from E. coli 0111:B4, 20-24 h incubation
Description: This test procedure is a standard test used to determine anti-TNF-α activity and to evaluate the usefulness of said compounds for counteracting the biological effects of TNF-α.
1. In Vitro Study: Inhibition of LPS-Induced TNF-α
Production From the Murine Cell Line WEHI-265
1) Cells (obtained from cell cultures containing≤10^6 cells/ml) are suspended at 0.2×10^6 cells/ml in complete medium (RPMI1640, with 10% FCS, 10^-5 M 2-ME, 2 mM glutan-fine and 10 mM HEPES buffer) and plated in CoStar 24 well plates (1.0 ml/well).
2) Compounds are dissolved in the appropriate vehicle at 400 times the concentration to be tested, and 5 μl of compound is added to the wells.
3) LPS (from E. coli 0111:B4) is diluted to 6 μg/ml and 1.0 ml is added to wells.
4) Plates are incubated 20-24 hours in 37° CO2 incubator.
5) Supernatant fluids are collected and analyzed for TNF content as described in J. Immunol., 142:3884.

[2] = tested on: LPS-Induced Serum TNF; assay: In vivo inhibition of LPS-induced serum TNF in mice; design: species or system mice (C57BI/6J); conditions: Mus musculus, 1.5 h; 25 mg/kg oral or i.p. one hour before LPS (50 μg i.p.); bled 90 min after LPS; ELISA; values may have a wide margin of error
Description: In addition to the in vitro test described above, the following in vivo test was also performed on several of the compounds of the present invention.
1. In Vivo Study: Inhibition of LPS-Induced Serum TNF
Mice (C57BI/6J males, 6-8 weeks of age) are dosed with the indicated compound (dissolved in CMC suspension vehicle; compounds are given orally or i.p. one hour before LPS challenge).
Mice are bled 90 min after LPS challenge.
4) Sera are analyzed for TNF content by ELISA as described in J. Immunol.

[3] = tested on: LPS/Galactosamine-Induced Lethality; assay: In vivo inhibition of LPS/galactosamine-induced lethality in mice; design: species or system mice (C57BI/6J); conditions: 25 mg/kg oral or i.p. one hour before LPS (100 ng) and d-galactosamine (8 mg) i.p.; survival at 24 hours
Description: This test procedure is a standard test used to determine activity against septic shock.
3. In Vivo Study: Inhibition of LPS/Galactosamine-Induced Lethality.
1) Mice (C57BI/6J males, 6-8 weeks of age) are dosed with the indicated compound (dissolved in CMC suspension vehicle; compounds are given orally or i.p. one hour before challenge with LPS and d-galactosamine).
2) Mice are challenged i.p. with a mixture of LPS (from E. coli 0111:B4; 100 ng) and d-galactosamine (8 mg).
3) Survival is determined 24 hours after challenge. See procedure published in J. Exp. Med. 165:657 (1987)

| SMILES | inhibition at 10 µM [1] [%] | inhibition in vivo at 25 mg/kg [2] [%] | # DEAD/TOTAL AT 25 MG/KG [3] |
| --- | --- | --- | --- |
| C=CCC(CNC)C1c2ccccc2COc2ccccc21 (stereo not shown) [Compound IA, N-methyl-2-[6,11-dihydro-dibenzo[b,e]oxepin-11-yl]-pent-4-en-1-amine] | 54 | 44 | – |
| CCOC(CN(C)C)C1c2ccccc2CCc2ccccc21 (stereo not drawn) [Compound IB, β-ethoxy-10,11-dihydro-N, N-dimethyl-5 H-dibenzo[a,d]cycloheptene-5-ethanamine] | 35 | 25 | 8/10 |
| C=CC(CCN(C)C)C1c2ccccc2CCc2ccccc21 (stereo not shown) [Compound IC, 3-(10,11-dihydro-5H-dibenzo[a,d]cyclohepten-5-yl)-N,N-dimethyl-4-pentenamine] | 46 | – | – |
| CCOC(C(=O)N(C)C)C1c2ccccc2CCc2ccccc21 (stereo not shown) [Compound IE, 2-ethoxy-2-[10,11-dihydro-5H-dibenzo[a,d]cyclohepten-5-yl]-N,N-dimethyl-acetamide] | 49 | 37 | 10/10 |
| CNCCC1c2ccccc2CCc2ccccc21 [Compound K1] | 15 | 71 | 1/10 |
| CCCC(CN(C)C)C1c2ccccc2COc2ccccc21 (stereo not shown) [Compound K2] | 54 | 40 | 7/10 |
| CCCC(CNC)C1c2ccccc2COc2ccccc21 (stereo not shown) [Compound K3, N-methyl-2-[6,11-dihydro-dibenzo[b,e]oxepin-11-yl]-pentanamine] | 73 | 27 | – |
| CCCC(CN(C)C(=O)OCC)C1c2ccccc2COc2ccccc21 (stereo not shown) [Compound K4] | 48 | – | – |
| CCCC(CN(C)C(C)=O)C1c2ccccc2COc2ccccc21 (stereo not shown) [Compound K5] | 46 | – | 10/10 |
| CCCC(CN(C)C)C1c2ccccc2CCc2ccc(Cl)cc21 (stereo not shown) [Compound K6] | 64 | – | – |
| CCCC(CNC)C1c2ccccc2CCc2ccc(Cl)cc21 (stereo not shown) [Compound K7] | 39 | 58 | – |
| CN(C)CC(O)C1c2ccccc2CCc2ccccc21 (stereo not shown) [IF] | 4 | 24 | 8/10 |
| CCOC(CNC)C1c2ccccc2CCc2ccccc21 (stereo not shown) [IG] | 35 | 51 | 7/9 |
| C=CCC(CN(C)C)C1c2ccccc2COc2ccccc21 (stereo not shown) [IH] | 23 | 30 | – |
| C=CCC(CN(C)C(C)=O)C1c2ccccc2COc2ccccc21 (stereo not shown) [IJ] | 34 | – | – |
| C=CCC(CN(C)C(=O)OCC)C1c2ccccc2COc2ccccc21 (stereo not shown) [IK] | 31 | – | – |
| C=CCC(CN(C)C(C)=O)C1c2ccccc2CCc2ccc(Cl)cc21 (stereo not shown) [IL] | 49 | 42 | – |
| C=CCC(CN(C)C)C1c2ccccc2CCc2ccc(Cl)cc21 (stereo not shown) [IM] | 50 | – | – |
| C=CCC(CNC)C1c2ccccc2CCc2ccc(Cl)cc21 (stereo not shown) [IN] | 28 | – | – |

Reference: patent US5574173A, “Tricyclic derivatives, compositions and methods of use” (Schering Corporation, priority 1993, dated 1996)
